Values joined by “and” are separate entries in the source; they are usually repeats but may differ in a detail not shown here. Equal entries are not always repeated.
How the values were obtained:
[1] = tested on: testosterone-enhanced ventral prostate and seminal vesicle weights; assay: Ventral Prostate and Seminal Vesicle Weight in vivo Assay; parameters: species or system rat; conditions: immature castrated male Sprague Dawley rats, once daily for five days, usually orally 40 mg/kg, with testosterone propionate 2 mg/kg s.c. Also: key: 'active' if the non weight adjusted prostate weight was ≦40 mg or the % Inhibition prostate weight, body weight adjusted was ≧40% @ 2 mg/day dosage; ID50's, if determined, of ≦15 mg/day also indicated an 'active' compound; listed herein as 'inactive' as they did not meet the specified criteria defined above.
In short: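 Wet weights of ventral prostate and seminal vesicles were taken on day six. Castrated immature male Sprague Dawley rats had received five daily doses of testosterone propionate (2 mg/kg s.c.) together with test compound, typically 40 mg/kg orally. Activity was scored from absolute prostate weight or body-weight-adjusted % inhibition.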

[2] = target: T1, androgen receptor (rat ventral prostate cytosol) (Rattus norvegicus, UniProt P15207); assay: Androgen Receptor Binding Using Rat Ventral Prostate Cytosol; conditions: for % Inhibition, Androgen Receptor Binding (Rat Cytosol) / inhibition at 3 µM: Concentration 3000 nM
T1 construct: from tissue; host or cells: ventral prostate cytosol of castrated male Sprague Dawley or Wistar rats
T1 sequence (P15207 1-902): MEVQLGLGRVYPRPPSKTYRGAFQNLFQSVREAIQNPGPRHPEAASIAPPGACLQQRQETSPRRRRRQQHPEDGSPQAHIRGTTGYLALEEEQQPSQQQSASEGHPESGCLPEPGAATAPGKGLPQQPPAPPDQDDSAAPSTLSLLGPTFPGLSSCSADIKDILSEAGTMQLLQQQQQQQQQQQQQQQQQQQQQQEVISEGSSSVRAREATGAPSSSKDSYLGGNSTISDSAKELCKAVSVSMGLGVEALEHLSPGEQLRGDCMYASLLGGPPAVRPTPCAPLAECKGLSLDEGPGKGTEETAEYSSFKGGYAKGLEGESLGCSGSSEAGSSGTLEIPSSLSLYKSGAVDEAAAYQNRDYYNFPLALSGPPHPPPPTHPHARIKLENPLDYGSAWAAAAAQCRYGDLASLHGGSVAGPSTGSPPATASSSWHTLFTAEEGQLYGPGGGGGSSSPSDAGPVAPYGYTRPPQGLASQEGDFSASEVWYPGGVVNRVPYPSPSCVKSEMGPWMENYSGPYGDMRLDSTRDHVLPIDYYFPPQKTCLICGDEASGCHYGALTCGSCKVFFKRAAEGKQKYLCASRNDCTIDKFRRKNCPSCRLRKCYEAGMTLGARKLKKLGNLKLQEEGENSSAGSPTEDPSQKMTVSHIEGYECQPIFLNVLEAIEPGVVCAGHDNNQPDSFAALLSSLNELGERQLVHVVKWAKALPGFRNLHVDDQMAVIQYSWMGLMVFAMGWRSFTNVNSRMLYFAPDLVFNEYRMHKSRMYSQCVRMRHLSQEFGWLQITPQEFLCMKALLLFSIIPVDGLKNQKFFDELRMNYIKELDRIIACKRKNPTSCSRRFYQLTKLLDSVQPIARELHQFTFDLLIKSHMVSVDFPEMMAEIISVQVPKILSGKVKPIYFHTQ
In short: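 Cytosol from castrated rat ventral prostate was incubated overnight at 4°C with 0.5 nM [3H] tracer and compound in TED buffer (10 mM Tris-HCl pH 7.4, molybdate, EDTA, DTT, glycerol).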

## CC(O)(C[S+]([O-])Cc1ccccc1)c1cc2cc([N+](=O)[O-])c(C(F)(F)F)cc2[nH]1 (mixture of isomers) [Compound 161]
[1]
  active / inactive: inhibition of testosterone-enhanced prostate weight: inactive
[2]
  % Inhibition, Androgen Receptor Binding (Rat Cytosol): 39%

## CC(C)SCC(C)(O)c1cc2cc([N+](=O)[O-])c(C(F)(F)F)cc2[nH]1 (stereo not drawn) [Compound 164]
[1]
  active / inactive: inhibition of testosterone-enhanced prostate weight: inactive
[2]
  inhibition at 3 µM: 52%

## CCSCC(C)(O)c1cc2cc([N+](=O)[O-])c(C(F)(F)F)cc2n1S(C)(=O)=O (stereo not drawn) [Compound 141]
[1]
  active / inactive: inhibition of testosterone-enhanced prostate weight: inactive
[2]
  inhibition at 3 µM: -4.5%

## CCS(=O)(=O)CC(C)(O)c1cc2cc([N+](=O)[O-])c(C(F)(F)F)cc2[nH]1 (stereo not drawn) [Compound 151]
[2]; 3 µM
  % Inhibition, Androgen Receptor Binding (Rat Cytosol): 100%

## CC(C)CSCC(C)(O)c1cc2cc([N+](=O)[O-])c(C(F)(F)F)cc2[nH]1 (stereo not drawn) [Compound 170]
[1]
  active / inactive: inhibition of testosterone-enhanced prostate weight: active
[2]
  inhibition at 3 µM: 80%

## CC(O)(CS(C)(=O)=O)c1cc2cc([N+](=O)[O-])c(C(F)(F)F)cc2[nH]1 (stereo not drawn) [Compound 140]
[1]
  active / inactive: inhibition of testosterone-enhanced prostate weight: active
[2]; 3 µM
  % Inhibition, Androgen Receptor Binding (Rat Cytosol): 47%

## CC(O)(CCS(C)(=O)=O)c1cc2cc([N+](=O)[O-])c(C(F)(F)F)cc2[nH]1 (stereo not drawn) [Compound 49]
[1]
  active / inactive: inhibition of testosterone-enhanced prostate weight: inactive
[2]
  inhibition at 3 µM: 48%

## COc1ccc(S(=O)(=O)CC(C)(O)c2cc3cc(Cl)c(C(F)(F)F)cc3[nH]2)cc1 (racemic) [Compound 129]
[1]
  active / inactive: inhibition of testosterone-enhanced prostate weight: inactive
[2]
  % Inhibition, Androgen Receptor Binding (Rat Cytosol): 39.5%

## CCSCC(C)(O)c1cc2cc([N+](=O)[O-])c(C(F)(F)F)cc2[nH]1 (single isomer, unassigned) [Compound 149]
[2]; 3 µM
  % Inhibition, Androgen Receptor Binding (Rat Cytosol): 94% and 77%

## CC(O)(CSc1ccc(O)cc1)c1cc2cc(Cl)c(C(F)(F)F)cc2[nH]1 (stereo not drawn) [Compound 120]
[2]
  inhibition at 3 µM: 130%

## CCSCC(C)(O)c1cc2cc([N+](=O)[O-])c(C(F)(F)F)cc2[nH]1 (single isomer, unassigned) [Compound 150]
[2]; 3 µM
  % Inhibition, Androgen Receptor Binding (Rat Cytosol): 120%

## CC[S+]([O-])C[C@](C)(O)c1cc2cc([N+](=O)[O-])c(C(F)(F)F)cc2[nH]1 (stereo in doubt) [Compound 155, 1-Ethanesulfinyl-2-(5-nitro-6-trifluoromethyl-1H-indol-2-yl)-propan-2-ol]
[1]
  active / inactive: inhibition of testosterone-enhanced prostate weight: inactive
[2]
  inhibition at 3 µM: -6.1%

## CCCSCC(C)(O)c1cc2cc([N+](=O)[O-])c(C(F)(F)F)cc2[nH]1 (stereo not drawn) [Compound 168]
[1]
  active / inactive: inhibition of testosterone-enhanced prostate weight: inactive
[2]
  inhibition at 3 µM: 41%

## CC(O)(CS(=O)(=O)c1ccc(N)cc1)c1cc2cc(Cl)c(C(F)(F)F)cc2[nH]1 (stereo not drawn) [Compound 118]
[1]
  active / inactive: inhibition of testosterone-enhanced prostate weight: inactive
[2]
  inhibition at 3 µM: 80.5%

## CC(O)(CSCC(F)(F)F)c1cc2cc([N+](=O)[O-])c(C(F)(F)F)cc2[nH]1 (stereo not drawn) [Compound 171]
[1]
  active / inactive: inhibition of testosterone-enhanced prostate weight: active
[2]
  inhibition at 3 µM: 18%
[2]; read-out: IC50 (nM), Androgen Receptor Binding (Rat Cytosol)
  IC50: 320 nM

## CSCC(C)(O)c1cc2cc(C#N)c(C(F)(F)F)cc2[nH]1 (stereo not drawn) [Compound 136]
[1]
  active / inactive: inhibition of testosterone-enhanced prostate weight: active
[2]
  inhibition at 3 µM: 38%

## CSCC(C)(O)c1cc2cc([N+](=O)[O-])c(C(F)(F)F)cc2[nH]1 (single isomer, unassigned) [Compound 144]
[2]; 3 µM
  % Inhibition, Androgen Receptor Binding (Rat Cytosol): 79%

## CC(O)(CS(C)(=O)=O)c1cc2cc([N+](=O)[O-])c(C(F)(F)F)cc2[nH]1 (stereo not drawn) [Compound 147]
[2]; 3 µM
  % Inhibition, Androgen Receptor Binding (Rat Cytosol): 68%

## CSCC(C)(O)c1cc2cc([N+](=O)[O-])c(C(F)(F)F)cc2[nH]1 (single isomer, unassigned) [Compound 145]
[2]; 3 µM
  % Inhibition, Androgen Receptor Binding (Rat Cytosol): 58%

## COc1ccc(SCC(C)(O)c2cc3cc(Cl)c(C(F)(F)F)cc3[nH]2)cc1 (stereo not drawn) [Compound 131]
[1]
  active / inactive: inhibition of testosterone-enhanced prostate weight: inactive
[2]
  inhibition at 3 µM: 120%

## CC(O)(CSCc1ccccc1)c1cc2cc([N+](=O)[O-])c(C(F)(F)F)cc2[nH]1 (stereo not drawn) [Compound 160]
[1]
  active / inactive: inhibition of testosterone-enhanced prostate weight: inactive
[2]
  inhibition at 3 µM: 65%

## CSCC(C)(O)c1cc2cc(Cl)c(C(F)(F)F)cc2[nH]1 (stereo not drawn) [Compound 135]
[1]
  active / inactive: inhibition of testosterone-enhanced prostate weight: inactive
[2]
  inhibition at 3 µM: 130%

## CCSCC(C)(O)c1cc2cc([N+](=O)[O-])c(C(F)(F)F)cc2n1C (racemic) [Compound 165]
[1]
  active / inactive: inhibition of testosterone-enhanced prostate weight: active
[2]
  inhibition at 3 µM: 52%

## COc1ccc(SCC(C)(O)c2cc3cc(Cl)c(C(F)(F)F)cc3n2S(C)(=O)=O)cc1 (racemic) [Compound 130]
[2]
  % Inhibition, Androgen Receptor Binding (Rat Cytosol): 32.55%

## CCS(=O)(=O)CC(C)(O)c1cc2cc([N+](=O)[O-])c(C(F)(F)F)cc2[nH]1 (stereo not drawn) [Compound 143]
[1]
  active / inactive: inhibition of testosterone-enhanced prostate weight: active
[2]; 3 µM
  % Inhibition, Androgen Receptor Binding (Rat Cytosol): 14%

## CC(O)(CS(=O)(=O)c1ccc(O)cc1)c1cc2cc(Cl)c(C(F)(F)F)cc2[nH]1 (stereo not drawn) [Compound 121]
[2]
  inhibition at 3 µM: 86%

## CCSCC(C)(O)c1cc2cc([N+](=O)[O-])c(C(F)(F)F)cc2[nH]1 (racemic) [Compound 142]
[1]
  active / inactive: inhibition of testosterone-enhanced prostate weight: active
[2]
  inhibition at 3 µM: 92%

## CCC(O)(CS(=O)(=O)CC)c1cc2cc([N+](=O)[O-])c(C(F)(F)F)cc2[nH]1 (stereo not drawn) [Compound 176]
[1]
  active / inactive: inhibition of testosterone-enhanced prostate weight: active
[2]
  inhibition at 3 µM: 90%

## CCSCC(O)c1cc2cc([N+](=O)[O-])c(C(F)(F)F)cc2[nH]1 (stereo not drawn) [Compound 158]
[1]
  active / inactive: inhibition of testosterone-enhanced prostate weight: inactive
[2]
  inhibition at 3 µM: 52%

## CSCCC(C)(O)c1cc2cc([N+](=O)[O-])c(C(F)(F)F)cc2[nH]1 (stereo not drawn) [Compound 47]
[1]
  active / inactive: inhibition of testosterone-enhanced prostate weight: inactive
[2]
  inhibition at 3 µM: 81%

## CC(O)(CSc1ccc(N)cc1)c1cc2cc(Cl)c(C(F)(F)F)cc2[nH]1 (stereo not drawn) [Compound 104]
[1]
  active / inactive: inhibition of testosterone-enhanced prostate weight: inactive
[2]; Concentration 1000 nM, read-out: % Inhibition, Androgen Receptor Binding (Rat Cytosol)
  inhibition at 1 µM: 94.5%
[2]
  inhibition at 3 µM: 110%

## CC(O)(CSC1CCCC1)c1cc2cc([N+](=O)[O-])c(C(F)(F)F)cc2[nH]1 (stereo not drawn) [Compound 173]
[1]
  active / inactive: inhibition of testosterone-enhanced prostate weight: inactive
[2]
  inhibition at 3 µM: 32%

## CCSCC(O)(CC)c1cc2cc([N+](=O)[O-])c(C(F)(F)F)cc2[nH]1 (stereo not drawn) [Compound 169]
[1]
  active / inactive: inhibition of testosterone-enhanced prostate weight: active
[2]
  inhibition at 3 µM: 62%

## CCS(=O)(=O)C[C@](C)(O)c1cc2cc([N+](=O)[O-])c(C(F)(F)F)cc2[nH]1 [Compound 156, 1-Ethanesulfonyl-2-(5-nitro-6-trifluoromethyl-1H-indol-2-yl)-propan-2-ol]
[1]
  active / inactive: inhibition of testosterone-enhanced prostate weight: inactive
[2]
  inhibition at 3 µM: 66%
[2]; 3 µM
  % Inhibition, Androgen Receptor Binding (Rat Cytosol): 67%

## CC(O)(CS(C)(=O)=O)c1cc2cc(Cl)c(C(F)(F)F)cc2[nH]1 (stereo not drawn) [Compound 138]
[1]
  active / inactive: inhibition of testosterone-enhanced prostate weight: inactive
[2]
  inhibition at 3 µM: 110%

## CC(O)(CS(C)(=O)=O)c1cc2cc([N+](=O)[O-])c(C(F)(F)F)cc2[nH]1 (stereo not drawn) [Compound 148]
[2]; 3 µM
  % Inhibition, Androgen Receptor Binding (Rat Cytosol): 94%

## CC(O)(CSc1ccc([N+](=O)[O-])cc1)c1cc2cc(Cl)c(C(F)(F)F)cc2[nH]1 (stereo not drawn) [Compound 122]
[2]
  inhibition at 3 µM: 83.5%

Source: patent US7282507B2, “Indole derivatives as selective androgen receptor modulators (SARMS)” (Janssen Pharmaceutica N.V., priority 2004, dated 2007)
